Assay results as given in PubChem BioAssay (NCI).
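96-well plates; 48 h exposure; 5 concentrations. Endpoints by linear interpolation between flanking doses. Not reached: highest tested concentration assigned. Definition used: TGI = concentration required for complete inhibition of growth.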

Experiments:
Assay in all cases: NCI-60 cell line screen, 48 h
[1] = system: RPMI-8226 leukemia
[2] = system: COLO 205 colon
[3] = system: HCC-2998 colon
[4] = system: SK-MEL-2 melanoma
[5] = system: K-562 leukemia
[6] = system: A549 NSCLC
[7] = system: HT29 colon
[8] = system: HCT-116 colon
[9] = system: MOLT-4 leukemia
[10] = system: SK-MEL-28 melanoma
[11] = system: SNB-19 CNS
[12] = system: IGROV1 ovarian
[13] = system: UACC-257 melanoma
[14] = system: OVCAR-4 ovarian
[15] = system: NCI-H23 lung
[16] = system: HOP-92 NSCLC
[17] = system: MDA-N
[18] = system: OVCAR-3 ovarian
[19] = system: ACHN renal
[20] = system: BT-549 breast
[21] = system: OVCAR-8 ovarian
[22] = system: HOP-62 NSCLC
[23] = system: MDA-MB-231 breast
[24] = system: UO-31 renal
[25] = system: SW-620 colon
[26] = system: CCRF-CEM leukemia
[27] = system: MCF7 breast
[28] = system: T-47D breast
[29] = system: TK-10 renal
[30] = system: SK-OV-3 ovarian
[31] = system: UACC-62 melanoma
[32] = system: SF-295 CNS
[33] = system: LOX IMVI melanoma
[34] = system: SNB-75 CNS
[35] = system: PC-3 prostate
[36] = system: U251 CNS
[37] = system: EKVX NSCLC
[38] = system: RXF 393 renal
[39] = system: NCI-H460 lung
[40] = system: SN12C renal
[41] = system: NCI-H226 lung
[42] = system: NCI/ADR-RES ovarian
[43] = system: SF-539 CNS
[44] = system: MDA-MB-435
[45] = system: DU-145 prostate
[46] = system: CAKI-1 renal
[47] = system: SK-MEL-5 melanoma
[48] = system: M14 melanoma
[49] = system: OVCAR-5 ovarian
[50] = system: 786-0 renal
[51] = system: SR leukemia
[52] = system: KM12 colon
[53] = system: HL-60(TB) leukemia
[54] = system: SF-268 CNS
[55] = system: HS 578T breast
[56] = system: MALME-3M melanoma
[57] = system: A498 renal
[58] = system: HCT-15 colon

Compound: CC/C=C(\C(=C/CC)[N+](=O)[O-])[N+](=O)[O-]
- TGI [1]: 47.6 µM
- TGI [2]: 37 µM
- TGI [3]: 34.4 µM
- TGI [4]: > 100 µM
- TGI [5]: 71.3 µM
- TGI [6]: > 100 µM
- TGI [7]: 31.9 µM
- TGI [8]: 35.1 µM
- TGI [9]: 64.9 µM
- TGI [10]: 37.1 µM
- TGI [11]: > 100 µM
- TGI [12]: 35.9 µM
- TGI [13]: 32.1 µM
- TGI [14]: 45.7 µM
- TGI [15]: 34.3 µM
- TGI [16]: 45.1 µM
- TGI [17]: 43 µM
- TGI [18]: 30.5 µM
- TGI [19]: 33.2 µM
- TGI [20]: 32.2 µM
- TGI [21]: 39 µM
- TGI [22]: > 100 µM
- TGI [23]: 36.2 µM
- TGI [24]: 33 µM
- TGI [25]: 32 µM
- TGI [26]: 42.4 µM
- TGI [27]: 38.1 µM
- TGI [28]: 55.6 µM
- TGI [29]: 33.7 µM
- TGI [30]: > 100 µM
- TGI [31]: 33.6 µM
- TGI [32]: > 100 µM
- TGI [33]: 32.2 µM
- TGI [34]: > 100 µM
- TGI [35]: > 100 µM
- TGI [36]: 34.3 µM
- TGI [37]: 29.8 µM
- TGI [38]: 31 µM
- TGI [39]: 35.5 µM
- TGI [40]: 35.2 µM
- TGI [41]: > 100 µM
- TGI [42]: 52.7 µM
- TGI [43]: 40.3 µM
- TGI [44]: 31.6 µM
- TGI [45]: 45.7 µM
- TGI [46]: 37.8 µM
- TGI [47]: 47.9 µM
- TGI [48]: 27 µM
- TGI [49]: 27.2 µM

Compound: O=C(O)CCC(=O)c1ccc(Cl)cc1
- TGI [1]: > 100 µM
- TGI [2]: > 100 µM
- TGI [50]: > 100 µM
- TGI [5]: > 100 µM
- TGI [6]: > 100 µM
- TGI [7]: > 100 µM
- TGI [8]: > 100 µM
- TGI [9]: > 100 µM
- TGI [51]: > 100 µM
- TGI [10]: > 100 µM
- TGI [11]: > 100 µM
- TGI [12]: > 100 µM
- TGI [14]: > 100 µM
- TGI [16]: > 100 µM
- TGI [17]: > 100 µM
- TGI [18]: > 100 µM
- TGI [21]: > 100 µM
- TGI [52]: > 100 µM
- TGI [22]: > 100 µM
- TGI [24]: > 100 µM
- TGI [25]: > 100 µM
- TGI [26]: > 100 µM
- TGI [28]: > 100 µM
- TGI [30]: > 100 µM
- TGI [32]: > 100 µM
- TGI [33]: > 100 µM
- TGI [34]: > 100 µM
- TGI [53]: > 100 µM
- TGI [37]: > 100 µM
- TGI [38]: > 100 µM
- TGI [40]: > 100 µM
- TGI [41]: > 100 µM
- TGI [43]: > 100 µM
- TGI [44]: > 100 µM
- TGI [45]: > 100 µM
- TGI [46]: > 100 µM
- TGI [47]: > 100 µM
- TGI [48]: > 100 µM
- TGI [49]: > 100 µM

Compound: C[N+]1(CCCl)CC[N+](C)(CCCl)CC1 (stereo not drawn)
- TGI [1]: > 100 µM
- TGI [2]: > 100 µM
- TGI [50]: > 100 µM
- TGI [4]: > 100 µM
- TGI [5]: > 100 µM
- TGI [6]: > 100 µM
- TGI [7]: > 100 µM
- TGI [8]: > 100 µM
- TGI [9]: > 100 µM
- TGI [10]: > 100 µM
- TGI [54]: > 100 µM
- TGI [55]: > 100 µM
- TGI [11]: > 100 µM
- TGI [12]: > 100 µM
- TGI [13]: > 100 µM
- TGI [14]: > 100 µM
- TGI [15]: > 100 µM
- TGI [56]: > 100 µM
- TGI [17]: > 100 µM
- TGI [18]: > 100 µM
- TGI [19]: > 100 µM
- TGI [20]: > 100 µM
- TGI [21]: > 100 µM
- TGI [52]: > 100 µM
- TGI [22]: > 100 µM
- TGI [57]: > 100 µM
- TGI [23]: > 100 µM
- TGI [24]: > 100 µM
- TGI [25]: > 100 µM
- TGI [26]: > 100 µM
- TGI [27]: > 100 µM
- TGI [28]: > 100 µM
- TGI [29]: > 100 µM
- TGI [30]: > 100 µM
- TGI [31]: > 100 µM
- TGI [32]: > 100 µM
- TGI [33]: > 100 µM
- TGI [34]: > 100 µM
- TGI [53]: > 100 µM
- TGI [35]: > 100 µM
- TGI [58]: > 100 µM
- TGI [36]: > 100 µM
- TGI [37]: > 100 µM
- TGI [38]: > 100 µM
- TGI [39]: > 100 µM
- TGI [40]: > 100 µM
- TGI [41]: > 100 µM
- TGI [42]: > 100 µM
- TGI [43]: > 100 µM
- TGI [44]: > 100 µM
- TGI [45]: > 100 µM
- TGI [46]: > 100 µM
- TGI [47]: > 100 µM
- TGI [48]: > 100 µM
- TGI [49]: > 100 µM
